Results: US7312306B2, “Substituted heterocyclic acyl-tripeptides useful as thrombin receptor modulators” (Ortho-McNeil Pharmaceutical, Inc., priority 1998, dated 2007)
Read-outs that look alike come from different tables or passages of the source. Starred links: 1 amine or outer side, 2 acyl side, 3 side chain; linkers in the order of their positions; H or OH if unused. Non-standard residues stand in square brackets, D forms with d. Residues, ends and D or L forms follow the SMILES beside them. ξ: configuration not given here. Triazole(1,2,4-3-CO,5-NH) = O=C(c1n[nH]c(N[*:1])n1)[*:2]; Phe(4-F) = N[CH](Cc1ccc(F)cc1)C(=O)O; ξNip = O=C(C1CCCN([*:1])C1)[*:2]; Cha = N[CH](CC1CCCCC1)C(=O)O

Key:
[1] = tested on: gel-filtered platelets aggregation induced by thrombin; assay: Inhibition of thrombin-induced gel-filtered platelet aggregation assay; type: cell-based; conditions: Homo sapiens
Protocol: (§1) In Vitro Agonist Platelet Aggregation Assay/Inhibition of Thrombin-induced Gel-filtered Platelet Aggregation Assay
(§2) The percentage of platelet aggregation is calculated as an increase in light transmission of compound-treated platelet concentrate vs. control-treated platelet concentrate. Human blood is obtained from drug free, normal donors into tubes containing 0.13 M sodium citrate. Platelet rich plasma (PRP) is collected by centrifugation of whole blood at 200×g for 10 min at 25° C. The PRP (5 mL) is gel filtered through Sepharose 2B (bed volume 50 mL), and the platelet count is adjusted to 2×10^7 platelets per sample. The following constituents are added to a siliconized cuvette: concentrated platelet filtrate and Tyrode's buffer (0.14 M NaCl, 0.0027 M KCl, 0.012 M NaHCO3, 0.76 mM Na2HPO4, 0.0055 M glucose, 2 mg/mL BSA and 5.0 mM HEPES @ pH 7.4) in an amount equal to 350 l, 50 l of 20 mM calcium and 50 l of the test compound. Aggregation is monitored in a BIODATA aggregometer for the 3 min following the addition of agonist (thrombin 50 l of 1 unit/mL).

platelet aggregation = assay: In vitro agonist platelet aggregation assay (gel-filtered platelets); type: cell-based, Human
Protocol: as §1, §2

[2] = gel-filtered platelets aggregation induced by thrombin, Table 2, read-out: IC50 (M), inhibition of platelet aggregation
[3] = agonist activity, human gel-filtered platelets, Table 1, read-out: EC50 (M), EC50 values for platelet aggregation
[4] = Homo sapiens, read-out: EC50 (M), EC50 values for platelet aggregation

Compound	IC50 [1, 2]	EC50 (platelet aggregation; [3])	further results
N=C(N)NCCCC(NC(=O)C(CC1CCCCC1)NC(=O)c1n[nH]c(NC(=O)C(=Cc2ccccc2)c2ccccc2)n1)C(=O)NC(Cc1ccccc1)C(N)=O (centres unmarked) [Compound 34]	1.9e-05 M	–	–
N=C(N)NCCC[C@H](NC(=O)[C@H](CC1CCCCC1)NC(=O)c1n[nH]c(N)n1)C(=O)N[C@@H](Cc1ccccc1)C(N)=O [Compound 1]	–	7.5e-07 M	–
N=C(N)NCCCC(NC(=O)C(CC1CCCCC1)NC(=O)C1CCCN(C(=O)C(N)Cc2ccc(F)cc2)C1)C(=O)NC(Cc1ccccc1)C(N)=O (centres unmarked) [Compound 32] (H-[Phe(4-F)][ξNip][Cha]RF-NH2; configuration not given here)	–	2.6e-05 M	–
N=C(N)NCCCC(NC(=O)C(CC1CCCCC1)NC(=O)c1n[nH]c(NC(=O)C(F)=Cc2ccccc2)n1)C(=O)NC(Cc1ccccc1)C(N)=O (centres unmarked) [Compound 12]	–	1.72e-06 M	–
N=C(N)NCCCC(NC(=O)C(CC1CCCCC1)NC(=O)c1n[nH]c(NC(=O)C=Cc2ccc(F)cc2)n1)C(=O)NC(Cc1ccccc1)C(N)=O (centres unmarked) [Compound 26]	–	–	EC50 (platelet aggregation; [4]): 7.9e-06 M; IC50 ([1]; read-out: IC50 (M), inhibition of platelet aggregation): 1.3e-05 M
N=C(N)NCCCC(NC(=O)C(Cc1ccccc1)NC(=O)C(CCCNC(=N)N)NC(=O)C(CC1CCCCC1)NC(=O)c1n[nH]c(N)n1)C(N)=O (centres unmarked) [Compound 9] ({Triazole(1,2,4-3-CO,5-NH)}-[Cha]RFR-NH2; configuration not given here)	–	–	EC50 (platelet aggregation; [4]): 1.21e-06 M
N=C(N)NCCC[C@H](NC(=O)[C@H](CC1CCCCC1)NS(=O)(=O)c1ccc2ccccc2c1)C(=O)N[C@@H](Cc1ccccc1)C(N)=O [Compound 43]	1.25e-05 M	–	–
N=C(N)NCCC[C@H](NC(=O)[C@H](CC1CCCCC1)NC(=O)c1cc2ccccc2s1)C(=O)N[C@@H](Cc1ccccc1)C(N)=O [Compound 37]	2.1e-05 M	–	–
N=C(N)NCCC[C@H](NC(=O)[C@H](CC1CCCCC1)NC(=O)c1ccc2[nH]cnc2c1)C(=O)N[C@@H](Cc1ccccc1)C(N)=O [Compound 41]	–	4e-06 M	–
Cc1c(S(=O)(=O)N[C@@H](CC2CCCCC2)C(=O)N[C@@H](CCCNC(=N)N)C(=O)N[C@@H](Cc2ccccc2)C(N)=O)sc2ccc(Cl)cc12 [Compound 36]	8.4e-06 M	–	–
